Assay results reported in PMC10853860 (2023).
Blank lines part the entries; values can stand above or below the compound they belong to.

Assays:
[1] = test system: T. ilyis ldcC SAM-I variant riboswitch WT (TiltrxWT) (RNA, riboswitch) AAAAUAUCUCUUAUUAAUAGCCGUUGAGACGAGGGGUCGAAGAUACGGUGGCAAACCAAUCAAUCCAAUUUUUUUGCAGUACGGAUUGAUAUUGGGUGCCCAACCUGAGCGUAGGAUUAUCCAAGUCCUAUGAGCAAUAAGAGGAAAAGCAGCUGAUAGAUAUCGAAGCUUUCCUUUGGUUGGAGAGCUUUUUUUAUGCCCAUUUUUUAUAUCAAAGGGGGAAAUCUAU; experiment: single-round transcription termination; settings: 100 mM KCl, 2 mM MgCl2, 20 mM Tris-HCl pH 8.0, 37 °C; for binding: 1 mM tested, no termination increase; for T50: E. coli RNA polymerase, apparent
[2] = test system: 135 metK RNA (RNA, riboswitch) GGUCUAUCUUAUUAAUAGCCGUUGAGACGAGGGGUCGAAGAAGCGGUGGCAAACCAGUCCAAAUCAAUGAUUUGGAUAUGGGGCCCAACCUGAGCGCAGAGCUUUUCUGUUCUGUGAACAAUAAGAGGAUAAGCAG; experiment: in-line probing; settings: 100 mM KCl, 2 mM MgCl2, 50 mM Tris-HCl pH 7.5, ~20 °C, apparent
[3] = test system: T. ilyis hypo consensus SAM-I riboswitch (TilconsSAMItrx) (RNA, riboswitch) AAAAUAACUUCUUUAUCACGAGAGAUUGAGGGACUGGCCCGAUGACAUCUCAGCAACCGACCCACGCGUAACGCGGCGGCACGGUGCUAAAUCCUGCAGAGUAAUCUGAGAGAUAAGAAGAGCAAAUCGACAUUCCCGACUCUUCUUGUUAUAAGAAGGGUUUUUUGUUUUCAAAAAAACAAUCUGGAGGGAAAAACG; experiment: single-round transcription termination; settings: 100 mM KCl, 2 mM MgCl2, 20 mM Tris-HCl pH 8.0, 37 °C
[4] = test system: 135 metK M14 (RNA, riboswitch) GGUCUAUCUUAUUAAAAGCCGUUGAGACGAGGGGUCGAAGAAGCGGUGGCAUACCAGUCCAAAUCAAUGAUUUGGAUAUGGGGCCAAACCUGAGCGCAGAGCUUUUCUGUUCUGUGAACAAUAAGAGGAUAAGCAG; experiment: in-line probing; settings: 100 mM KCl, 2 mM MgCl2; 50 mM Tris-HCl pH 7.5, ~20 °C; 1 and 5.6 mM tested
[5] = test system: T. ilyis ldcC M9 (TiltrxshortP1) (RNA, riboswitch) AAUUAAUAGCCGUUGAGACGAGGGGUCGAAGAUACGGUGGCAAACCAAUCAAUCCAAUUUUUUUGCAGUACGGAUUGAUAUUGGGUGCCCAACCUGAGCGUAGGAUUAUCCAAGUCCUAUGAGCAAUAAGAGGAAAAGCAGCUGAUAGAUAUCGAAGCUUUCCUUUGGUUGGAGAGCUUUUUUUAUGCCCAUUUUUUAUAUCAAAGGGGGAAAUCUAU; experiment: single-round transcription termination; settings: 100 mM KCl, 2 mM MgCl2; 20 mM Tris-HCl pH 8.0, 37 °C; no termination response
[6] = test system: (RNA, riboswitch) AAAAUAUCUCUUAUUAAUAGCCGUUGAGACGAGGGGUCGAAGAUACGGUGGCAAACCAAUCAAUCCAAUUUUUUUGCAGUACGGAUUGAUAUUGGGUGCCCAACCUGAGCGUAGGAUUAUCCAAGUCCUAUGAGCAAUAAGAGGAAAAGCAGCUGAUAGAUAUCGAAGCUUUCCUUUGGUUGGAGAGCUUUUUUUAUGCCCAUUUUUUAUAUCAAAGGGGGAAAUCUAU; experiment: single-round transcription termination; settings: 100 mM KCl, 2 mM MgCl2; 20 mM Tris-HCl pH 8.0, 37 °C; 1 mM tested; no termination increase

SMILES: CC(=O)NCCCNCCCCNCCCN
KD ([2]; Hill 1.5): ~ 860 μM

SMILES: CNCCCN
binding [1]: no

SMILES: CSC[C@H]1O[C@@H](n2cnc3c(N)ncnc32)[C@H](O)[C@@H]1O
binding [1]: no

SMILES: NCCCNCCCCNCCCN
KD ([2]; Hill 1.4): ~ 340 μM
T50 [1]: 79 µM

SMILES: NCCCSC[C@H]1O[C@@H](n2cnc3c(N)ncnc32)[C@H](O)[C@@H]1O
binding [6]: no

The remaining lines, values ahead:

binding [1]: no
SMILES: CC(=O)NCCCNCCCCN

binding [1]: no
SMILES: CCCNCCCN

binding [1]: no
SMILES: CCNCCCN

binding ([3]; 1 mM SAM, strong termination): yes
binding [1]: no
SMILES: C[S+](CC[C@H](N)C(=O)O)C[C@H]1O[C@@H](n2cnc3c(N)ncnc32)[C@H](O)[C@@H]1O (some centres unmarked)

KD ([2]; Hill 1.4, replicate ~730 μM): ~ 670 μM
binding [4]: weak
binding ([3]; 1 mM tested, no termination response): no
binding [5]: no
T50 [1]: 214 µM
SMILES: NCCCCNCCCN

binding [1]: no
SMILES: NCCCN
